Measurements: PubChem BioAssay (NCI)
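Values below derive from 48-hour exposures of cells grown in 96-well plates, with endpoints linearly interpolated between the two concentrations bracketing the appropriate inhibition level. TGI: total growth inhibition.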

Tests used:
Assay in all cases: DTP human tumour cell line panel, 48 h
CAKI-1 renal = test system: CAKI-1 renal
OVCAR-3 ovarian = test system: OVCAR-3 ovarian
SNB-75 CNS = test system: SNB-75 CNS
A498 renal = test system: A498 renal
HL-60(TB) leukemia = test system: HL-60(TB) leukemia
ACHN renal = test system: ACHN renal
SK-OV-3 ovarian = test system: SK-OV-3 ovarian
SF-295 CNS = test system: SF-295 CNS
SNB-19 CNS = test system: SNB-19 CNS
A549 NSCLC = test system: A549 NSCLC
SK-MEL-5 melanoma = test system: SK-MEL-5 melanoma
OVCAR-4 ovarian = test system: OVCAR-4 ovarian
HOP-92 NSCLC = test system: HOP-92 NSCLC
MDA-MB-435 = test system: MDA-MB-435
DU-145 prostate = test system: DU-145 prostate
786-0 renal = test system: 786-0 renal
SF-539 CNS = test system: SF-539 CNS
CCRF-CEM leukemia = test system: CCRF-CEM leukemia
UO-31 renal = test system: UO-31 renal
COLO 205 colon = test system: COLO 205 colon
HT29 colon = test system: HT29 colon
K-562 leukemia = test system: K-562 leukemia
RXF 393 renal = test system: RXF 393 renal
UACC-62 melanoma = test system: UACC-62 melanoma
MDA-MB-231 breast = test system: MDA-MB-231 breast
RPMI-8226 leukemia = test system: RPMI-8226 leukemia
T-47D breast = test system: T-47D breast
SK-MEL-2 melanoma = test system: SK-MEL-2 melanoma
PC-3 prostate = test system: PC-3 prostate
HCC-2998 colon = test system: HCC-2998 colon
SN12C renal = test system: SN12C renal
OVCAR-8 ovarian = test system: OVCAR-8 ovarian
NCI-H226 lung = test system: NCI-H226 lung
SK-MEL-28 melanoma = test system: SK-MEL-28 melanoma
NCI-H522 lung = test system: NCI-H522 lung
MCF7 breast = test system: MCF7 breast
NCI-H23 lung = test system: NCI-H23 lung
IGROV1 ovarian = test system: IGROV1 ovarian
HCT-116 colon = test system: HCT-116 colon
TK-10 renal = test system: TK-10 renal
U251 CNS = test system: U251 CNS
SW-620 colon = test system: SW-620 colon
EKVX NSCLC = test system: EKVX NSCLC
HOP-62 NSCLC = test system: HOP-62 NSCLC
KM12 colon = test system: KM12 colon
HCT-15 colon = test system: HCT-15 colon
NCI/ADR-RES ovarian = test system: NCI/ADR-RES ovarian
M14 melanoma = test system: M14 melanoma
MOLT-4 leukemia = test system: MOLT-4 leukemia
MDA-N = test system: MDA-N
MALME-3M melanoma = test system: MALME-3M melanoma
LOX IMVI melanoma = test system: LOX IMVI melanoma
UACC-257 melanoma = test system: UACC-257 melanoma
SR leukemia = test system: SR leukemia
NCI-H460 lung = test system: NCI-H460 lung
SF-268 CNS = test system: SF-268 CNS
BT-549 breast = test system: BT-549 breast
OVCAR-5 ovarian = test system: OVCAR-5 ovarian

CSc1nc(Cl)c(Br)c(Nc2c[nH]c(=O)[nH]c2=O)n1
TGI (CAKI-1 renal): 3.22 µM
TGI (OVCAR-3 ovarian): 40.7 µM
TGI (SNB-75 CNS): 42.7 µM
TGI (A498 renal): 35.7 µM
TGI (HL-60(TB) leukemia): 5.47 µM
TGI (ACHN renal): 35.5 µM
TGI (SK-OV-3 ovarian): 42.7 µM
TGI (SF-295 CNS): 42.6 µM
TGI (SNB-19 CNS): 44.9 µM
TGI (A549 NSCLC): 89.5 µM
TGI (SK-MEL-5 melanoma): 42.6 µM
TGI (OVCAR-4 ovarian): 37.9 µM
TGI (HOP-92 NSCLC): 31.8 µM
TGI (MDA-MB-435): 83.7 µM
TGI (DU-145 prostate): 49.9 µM
TGI (786-0 renal): 27.1 µM
TGI (SF-539 CNS): 45.2 µM
TGI (CCRF-CEM leukemia): 49 µM
TGI (UO-31 renal): 37.5 µM
TGI (COLO 205 colon): 32.9 µM
TGI (HT29 colon): 29.4 µM
TGI (K-562 leukemia): > 100 µM
TGI (RXF 393 renal): 45.4 µM
TGI (UACC-62 melanoma): 31.4 µM
TGI (MDA-MB-231 breast): 30.1 µM
TGI (RPMI-8226 leukemia): > 100 µM
TGI (T-47D breast): 40 µM
TGI (SK-MEL-2 melanoma): 44.4 µM
TGI (PC-3 prostate): 45.8 µM
TGI (HCC-2998 colon): 42.2 µM
TGI (SN12C renal): 35.3 µM
TGI (OVCAR-8 ovarian): 30.4 µM
TGI (NCI-H226 lung): 41.7 µM
TGI (SK-MEL-28 melanoma): 95.8 µM
TGI (NCI-H522 lung): 3.88 µM
TGI (MCF7 breast): > 100 µM
TGI (NCI-H23 lung): 35.7 µM
TGI (IGROV1 ovarian): 19.9 µM
TGI (HCT-116 colon): 29.3 µM
TGI (TK-10 renal): 40 µM
TGI (U251 CNS): 48.5 µM
TGI (SW-620 colon): > 100 µM
TGI (EKVX NSCLC): 33.8 µM
TGI (HOP-62 NSCLC): 53.5 µM
TGI (KM12 colon): 67.8 µM
TGI (HCT-15 colon): 27.6 µM
TGI (NCI/ADR-RES ovarian): 43.3 µM
TGI (M14 melanoma): > 100 µM
TGI (MOLT-4 leukemia): 43.6 µM
TGI (MDA-N): 46.9 µM
TGI (MALME-3M melanoma): 43.9 µM
TGI (LOX IMVI melanoma): 39.3 µM
TGI (UACC-257 melanoma): 38.7 µM

Sc1nnc(-c2ccccc2Nc2ccccc2-c2nnc(S)n2-c2ccccc2)n1-c1ccccc1
TGI (CAKI-1 renal): > 100 µM
TGI (OVCAR-3 ovarian): > 100 µM
TGI (SNB-75 CNS): 90.8 µM
TGI (SR leukemia): > 100 µM
TGI (HL-60(TB) leukemia): 67.1 µM
TGI (ACHN renal): > 100 µM
TGI (SF-295 CNS): > 100 µM
TGI (SNB-19 CNS): > 100 µM
TGI (SK-MEL-5 melanoma): 80.9 µM
TGI (OVCAR-4 ovarian): > 100 µM
TGI (NCI-H460 lung): > 100 µM
TGI (HOP-92 NSCLC): 48.2 µM
TGI (MDA-MB-435): 53 µM
TGI (SF-268 CNS): > 100 µM
TGI (DU-145 prostate): > 100 µM
TGI (786-0 renal): > 100 µM
TGI (SF-539 CNS): > 100 µM
TGI (CCRF-CEM leukemia): > 100 µM
TGI (UO-31 renal): > 100 µM
TGI (COLO 205 colon): > 100 µM
TGI (BT-549 breast): > 100 µM
TGI (HT29 colon): > 100 µM
TGI (K-562 leukemia): > 100 µM
TGI (RXF 393 renal): > 100 µM
TGI (UACC-62 melanoma): > 100 µM
TGI (MDA-MB-231 breast): 89.6 µM
TGI (RPMI-8226 leukemia): 48 µM
TGI (T-47D breast): 88.2 µM
TGI (SK-MEL-2 melanoma): 84.2 µM
TGI (PC-3 prostate): > 100 µM
TGI (HCC-2998 colon): > 100 µM
TGI (SN12C renal): 72.9 µM
TGI (OVCAR-8 ovarian): > 100 µM
TGI (NCI-H226 lung): > 100 µM
TGI (SK-MEL-28 melanoma): 44.7 µM
TGI (NCI-H522 lung): 81.8 µM
TGI (MCF7 breast): > 100 µM
TGI (NCI-H23 lung): > 100 µM
TGI (IGROV1 ovarian): 42.2 µM
TGI (HCT-116 colon): > 100 µM
TGI (TK-10 renal): > 100 µM
TGI (U251 CNS): > 100 µM
TGI (SW-620 colon): 81.9 µM
TGI (EKVX NSCLC): 97.9 µM
TGI (HOP-62 NSCLC): > 100 µM
TGI (KM12 colon): > 100 µM
TGI (HCT-15 colon): > 100 µM
TGI (NCI/ADR-RES ovarian): > 100 µM
TGI (M14 melanoma): > 100 µM
TGI (OVCAR-5 ovarian): > 100 µM
TGI (MOLT-4 leukemia): 78.9 µM
TGI (MDA-N): 85.3 µM
TGI (LOX IMVI melanoma): > 100 µM
TGI (UACC-257 melanoma): > 100 µM
